# Source: patent US20230212571A1, “COMPOSITIONS AND METHODS FOR DELIVERING POLYNUCLEOTIDES” (NeOnc Technologies, Inc., priority 2020, published 2023)
# Legend:
# [1] = tested on: AVM-BEC; assay type: cell-based
# Procedure: The apoptotic and necrotic cell death was measured by flow cytometry using PI/Annexin V-Alexa Fluor 488 (ThermoFisher Scientific), following the manufacturer's instructions. After 24 h-treatments, cells were harvested, washed with cold PBS, and suspended in Annexin Binding Buffer (ThermoFisher Scientific) at a concentration of 1×10^6 cells/mL. Following addition of Annexin V and PI, cells were incubated at room temperature for 15 min in the ? dark, and additional 400 μL of 1× binding buffer was added to each sample. Positive controls of cell death were obtained treating cells with 50% ethanol. Ten thousand cells/sample were analyzed using a BD LSRII flow cytometer with the proper compensation controls and the FlowJo_V10 analysis software.
# Cells were collected and analyzed for apoptosis, while supernatants were collected and analyzed for necrosis (Cell Death Detection ELISA^PLUS), and for PAI-1, VEGF (Quantikine ELISA Kit, R&D Systems) and TGF-β (Proteintech) protein content, following the manufacturers' instructions. Absorbance was measured using a Fluostar Omega microplate reader (BMG Labtech). Data were normalized to kit controls and number of producing cells.
# [2] = tested on: AVM-BEC; conditions: previous results from our laboratory (Ferreira 2014); cited from earlier work
# [3] = tested on: AVM-BEC; test: Immunostaining of MMP2 and MMP9 in AVM-BEC; assay type: cell-based, human
# Procedure: Immunostaining was performed as previously described^15. (Virrey J J, Golden E B, Sivakumar W, et al. Glioma-associated endothelial cells are chemoresistant to temozolomide. J Neurooncol. 2009; 95(1):13-22). Primary antibodies used were rabbit anti-MMP2, mouse anti-MMP9 (1:150, Abgent), rabbit anti-phospho-Smad1/5 (Ser463/465) (1:50, Abgent), rabbit anti-BMP4, rabbit anti-PAI-1 (1:50, Proteintech), rabbit anti-VEGF (1:50, Santa Cruz Biotechnology), rabbit anti-HIF-1α (1:50, Cell Signaling Technology), and rabbit anti-phospho-Smad3 (Ser423/425) (1:50, GeneTex). Secondary antibodies used were biotinylated anti-rabbit and biotinylated anti-mouse (1:300, Vector Laboratories), accordingly. Pictures were taken in an Eclipse 80i microscope (Nikon). Images shown are representative of three-five independent experiments.
# [4] = tested on: AVM-BEC; test: Biotinylated miR-18a uptake analysis in AVM-BEC; assay type: cell-based, human; conditions: biotinylated probes, 30 min at 37° C., no transfection reagent, Ago-2 0.4 nM when indicated
# Procedure: Biotinylated hsa-miR-18a-5p sense and hsa-miR-18a-3p sense probes were acquired from Integrated DNA Technologies (IDT) and reconstituted in RNAse-free water. A scramble sequence of the miR-18a was designed using GenScript®, and the biotinylated probe using this sequence was also acquired from IDT and reconstituted in RNAse-free water. […] Then, media was replaced by fresh media containing the corresponding probes without Lipofectamine, and AVM-BEC were incubated for 30 min at 37° C. in shear flow conditions. When indicated, Ago-2 (0.4 nM, Abcam) was co-administered with the probes as the microRNA carrier and stabilizer^1. Cells were then washed with PBS and fixed with 4% paraformaldehyde (PFA). Avidin/Biotin blocking kit (Vector Laboratories) was used to block unspecific bindings, and cells were incubated with Alexa Fluor 488 streptavidin (1:200, Thermo Fisher Scientific) for 1 h at room temperature to detect the tagged microRNAs. DAPI (Thermo Fisher Scientific) was used to detect cell nuclei. Cells were mounted with Dako Fluorescence Mounting Medium. Pictures were taken in a Zeiss LSM 510 confocal microscope (Carl Zeiss Inc.).
substance,measurement,setting,value
hsa-miR-18a-5p (UAGGUGCAUCUAGUGCAGAUAG; chemistry not given here; listed as Homo sapiens) [small non-coding RNA molecule involved in post-transcriptional regulation of gene expression; Dharmacon],"cell death (apoptosis, necrosis)",[1],does not increase cell death
same,TSP-1 release by AVM-BECs (ELISA of cell supernatants),[2],induces TSP-1 release
same,MMP9 expression (immunostaining),[3],did not decrease
same,uptake: levels of miR-18a detected inside the AVM-BEC and their nuclei,[4],enough to obtain AVM-BEC uptake
